Reference: the NIST ThermoML archive (doi:10.1016/j.jct.2014.05.016)

Experiment: xn = mol fraction of the nth substance listed
Conditions: 100 kPa, Liquid; for mass density: Vibrating tube method; for viscosity: Concentric cylinders viscometry

CCCC[n+]1ccccc1.F[B-](F)(F)F [1-butylpyridinium tetrafluoroborate] + CCCCn1cc[n+](C)c1.F[B-](F)(F)F
Conditions	mass density [kg/m3]	viscosity [mPa·s]
318.15 K, x2 = 0	1199.4	–
318.15 K, x2 = 0.1007	1198.1	–
318.15 K, x2 = 0.2004	1197	–
318.15 K, x2 = 0.3001	1195.7	–
318.15 K, x2 = 0.4004	1194.4	–
318.15 K, x2 = 0.5009	1193.1	–
318.15 K, x2 = 0.6004	1191.8	–
318.15 K, x2 = 0.7013	1190.6	–
318.15 K, x2 = 0.8007	1189.1	–
318.15 K, x2 = 0.8987	1187.8	–
323.15 K, x2 = 0	1196	47.29
323.15 K, x2 = 0.1007	1194.7	–
323.15 K, x2 = 0.1009	–	46.21
323.15 K, x2 = 0.2004	1193.5	–
323.15 K, x2 = 0.2005	–	44.95
323.15 K, x2 = 0.3001	1192.3	–
323.15 K, x2 = 0.3003	–	43.7
323.15 K, x2 = 0.4001	–	42.46
323.15 K, x2 = 0.4004	1190.9	–
323.15 K, x2 = 0.4999	–	41.32
323.15 K, x2 = 0.5009	1189.6	–
323.15 K, x2 = 0.6004	1188.3	–
323.15 K, x2 = 0.6007	–	40.18
323.15 K, x2 = 0.7004	–	39.01
323.15 K, x2 = 0.7013	1187	–
323.15 K, x2 = 0.8001	–	37.96
323.15 K, x2 = 0.8007	1185.6	–
323.15 K, x2 = 0.8987	1184.3	–
323.15 K, x2 = 0.8998	–	36.87
328.15 K, x2 = 0	1192.6	38.71
328.15 K, x2 = 0.1007	1191.3	–
328.15 K, x2 = 0.1009	–	37.89
328.15 K, x2 = 0.2004	1190.1	–
328.15 K, x2 = 0.2005	–	36.94
328.15 K, x2 = 0.3001	1188.8	–
328.15 K, x2 = 0.3003	–	36
328.15 K, x2 = 0.4001	–	35.04
328.15 K, x2 = 0.4004	1187.5	–
328.15 K, x2 = 0.4999	–	34.16
328.15 K, x2 = 0.5009	1186.2	–
328.15 K, x2 = 0.6004	1184.9	–
328.15 K, x2 = 0.6007	–	33.29
328.15 K, x2 = 0.7004	–	32.42
328.15 K, x2 = 0.7013	1183.5	–
328.15 K, x2 = 0.8001	–	31.6
328.15 K, x2 = 0.8007	1182.1	–
328.15 K, x2 = 0.8987	1180.8	–
328.15 K, x2 = 0.8998	–	30.76
333.15 K, x2 = 0	1189.2	32.12
333.15 K, x2 = 0.1007	1188	–
333.15 K, x2 = 0.1009	–	31.48
333.15 K, x2 = 0.2004	1186.7	–
333.15 K, x2 = 0.2005	–	30.81
333.15 K, x2 = 0.3001	1185.4	–
333.15 K, x2 = 0.3003	–	30.05
333.15 K, x2 = 0.4001	–	29.3
333.15 K, x2 = 0.4004	1184	–
333.15 K, x2 = 0.4999	–	28.66
333.15 K, x2 = 0.5009	1182.7	–
333.15 K, x2 = 0.6004	1181.4	–
333.15 K, x2 = 0.6007	–	27.94
333.15 K, x2 = 0.7004	–	27.27
333.15 K, x2 = 0.7013	1180	–
333.15 K, x2 = 0.8001	–	26.68
333.15 K, x2 = 0.8007	1178.6	–
333.15 K, x2 = 0.8987	1177.3	–
333.15 K, x2 = 0.8998	–	26.05
338.15 K, x2 = 0	1185.8	26.98
338.15 K, x2 = 0.1007	1184.6	–
338.15 K, x2 = 0.1009	–	26.47
338.15 K, x2 = 0.2004	1183.3	–
338.15 K, x2 = 0.2005	–	25.93
338.15 K, x2 = 0.3001	1182	–
338.15 K, x2 = 0.3003	–	25.37
338.15 K, x2 = 0.4001	–	24.83
338.15 K, x2 = 0.4004	1180.6	–
338.15 K, x2 = 0.4999	–	24.25
338.15 K, x2 = 0.5009	1179.3	–
338.15 K, x2 = 0.6004	1178	–
338.15 K, x2 = 0.6007	–	23.7
338.15 K, x2 = 0.7004	–	23.18
338.15 K, x2 = 0.7013	1176.6	–
338.15 K, x2 = 0.8001	–	22.68
338.15 K, x2 = 0.8007	1175.2	–
338.15 K, x2 = 0.8987	1173.9	–
338.15 K, x2 = 0.8998	–	22.23
343.15 K, x2 = 0	1182.5	22.97
343.15 K, x2 = 0.1007	1181.2	–
343.15 K, x2 = 0.1009	–	22.54
343.15 K, x2 = 0.2004	1179.9	–
343.15 K, x2 = 0.2005	–	22.07
343.15 K, x2 = 0.3001	1178.6	–
343.15 K, x2 = 0.3003	–	21.64
343.15 K, x2 = 0.4001	–	21.16
343.15 K, x2 = 0.4004	1177.3	–
343.15 K, x2 = 0.4999	–	20.75
343.15 K, x2 = 0.5009	1175.9	–
343.15 K, x2 = 0.6004	1174.5	–
343.15 K, x2 = 0.6007	–	20.32
343.15 K, x2 = 0.7004	–	19.9
343.15 K, x2 = 0.7013	1173.2	–
343.15 K, x2 = 0.8001	–	19.49
343.15 K, x2 = 0.8007	1171.8	–
343.15 K, x2 = 0.8987	1170.4	–
343.15 K, x2 = 0.8998	–	19.09
